Like-named read-outs stand apart in the source and are kept apart here.
Biological target: T1, HIV-1-protease (Human immunodeficiency virus type 1 group M subtype B, UniProt P04585)
T1 construct: made in house
Assay: Inhibition of HIV-1-protease with icosapeptide substrate […] (HPLC)
Type: biochemical
Procedure: The inhibitory action of the compounds of formula I on the proteolytic activity of HIV-1-protease can be shown, for example, according to known procedures (see A. D. Richards et al., J. Biol. Chem. 265(14), 7733-7736 (1990)). In that method the inhibition of the action of HIV-1-protease (preparation: see S. Billich et al., J. Biol. Chem. 263(34), 17905-17908 (1990)) is measured in the presence of the icosapeptide […] (a synthetic substrate of HIV-1-protease, prepared by peptide synthesis in accordance with known procedures (see J. Schneider et al., Cell 54, 363-368 (1988)), which contains as substrate analogue one of the cleavage sites of the gag-precursor protein (natural substrate of HIV-1-protease). That substrate and its cleavage products are analysed by high performance liquid chromatography (HPLC).
The test compound is dissolved in dimethyl sulfoxide. The enzymatic test is carried out by adding suitable dilutions of the inhibitor in 20 mM β-morpholinoethanesulfonic acid (MES) buffer pH 6.0 to the test mixture. That mixture consists of the above-mentioned icosapeptide (122 µM) in 20 mM MES-buffer pH 6.0. 100 µl are used per test batch. The reaction is started by the addition of […] of HIV-1-protease solution and is stopped after one hour's incubation at 37°C by the addition of 10 µl of 0.3M HClO4. After centrifugation of the sample at 10 000 x g for 5 minutes, 20 µl of the resulting supernatant are applied to a 125 x 4.6 mm Nucleosil® C18-5m-HPLC column (reversed-phase material supplied by Macherey & Nagel, Düren, FRG, based on silica gel that has been charged with C18alkyl chains). The uncleaved icosapeptide and its cleavage products are eluted from the column by means of the following gradient: 100 % eluant 1 → 50 % eluant 1 + 50 % eluant 2 (eluant 1: 10 % acetonitrile, 90 % H2O, 0.1 % trifluoroacetic acid (TFA); eluant 2: 75 % acetonitrile, 25 % H2O, 0.08 % TFA) for 15 minutes, throughflow rate 1 ml/min. The quantification of the eluted peptide fragments is carried out by measuring the peak height of the cleavage product at 215 nm.
Using the test system described above with the icosapeptide […], the IC50 values given below are obtained for the following Examples: […]

[1] = icosapeptide […] 122 µM, 20 mM MES pH 6.0, one hour at 37°C, read-out: IC50

| Compound | IC50 [1] | further results |
| --- | --- | --- |
| COC(=O)N[C@H](C(=O)N[C@@H](Cc1ccccc1)[C@@H](O)CN(Cc1ccc(-c2cncs2)cc1)NC(=O)[C@@H](NC(=O)OC)C(C)C)C(C)C [Example 1, 1-[4-(Thiazol-5-yl)-phenyl]-4(S)-hydroxy-5(S)-2,5-bis[N-(N-methoxycarbonyl-(L)-valyl)amino]-6-phenyl-2-azahexane] | 32 nM | – |
| COC(=O)N[C@H](C(=O)N[C@@H](Cc1ccccc1)[C@@H](O)CN(Cc1ccc(-c2cccnc2)cc1)NC(=O)[C@@H](NC(=O)OC)C(C)C)C(C)C [Example 39, 1-[4-(Pyridin-3-yl)-phenyl]-4(S)-hydroxy-5(S)-2,5-bis[N-(N-methoxycarbonyl-(L)-valyl)amino]-6-phenyl-2-azahexane] | 12 nM | – |
| CC[C@H](C)[C@H](NC(=O)OC)C(=O)N[C@@H](Cc1ccccc1)[C@@H](O)CN(Cc1ccc(-c2nccs2)cc1)NC(=O)[C@@H](NC(=O)OC)C(C)C [Example 23, 1-[4-(Thiazol-2-yl)-phenyl]-4(S)-hydroxy-2-N-(N-methoxycarbonyl-(L)-valyl)amino-5(S)-N-(N-methoxycarbonyl-(L)-iso-leucyl)amino-6-phenyl-2-azahexane] | 34 nM | – |
| CC[C@H](C)[C@H](NC(=O)OC)C(=O)N[C@@H](Cc1ccccc1)[C@@H](O)CN(Cc1ccc(-c2ccccn2)cc1)NC(=O)[C@@H](NC(=O)OC)C(C)C [Example 50, 1-[4-(Pyridin-2-yl)-phenyl]-4(S)-hydroxy-2-N-(N-methoxy-carbonyl-(L)-valyl)amino-5(S)-N-(N-methoxycarbonyl-(L)-iso-leucyl)amino-6-phenyl-2-azahexane] | – | IC50: 28 nM |
| COC(=O)N[C@H](C(=O)NN(Cc1ccc(-c2cncs2)cc1)C[C@H](O)[C@H](Cc1ccccc1)NC(=O)[C@@H](NC(=O)OC)C(C)(C)C)C(C)C [Example 2, 1-[4-(Thiazol-5-yl)-phenyl]-4(S)-hydroxy-2-N-(N-methoxycarbonyl-(L)-valyl)-amino-5(S)-N-(N-methoxycarbonyl-(L)-tert-leucyl)amino-6-phenyl-2-azahexane] | 14 nM | – |
| COC(=O)N[C@H](C(=O)N[C@@H](Cc1ccccc1)[C@@H](O)CN(Cc1ccc(-c2nnn(C(C)(C)C)n2)cc1)NC(=O)[C@@H](NC(=O)OC)C(C)(C)C)C(C)C [Example 35, 1-[4-(2-tert-Butyl-2H-tetrazol-5-yl)-phenyl]-4(S)-hydroxy-2-N-(N-methoxycarbonyl-(L)-tert-leucyl)amino-5(S)-N-(N-methoxycarbonyl-(L)-valyl)amino-6-phenyl-2-azahexane] | 58 nM | – |
| CC[C@H](C)[C@H](NC(=O)OC)C(=O)NN(Cc1ccc(-c2cncs2)cc1)C[C@H](O)[C@H](Cc1ccccc1)NC(=O)[C@@H](NC(=O)OC)C(C)C [Example 9, 1-[4-(Thiazol-5-yl)-phenyl]-4(S)-hydroxy-2-N-(N-methoxycarbonyl-(L)-isoleucyl)amino-5(S)-N-(N-methoxycarbonyl-(L)-valyl)amino-6-phenyl-2-azahexane] | 19 nM | – |
| CC[C@H](C)[C@H](NC(=O)OC)C(=O)NN(Cc1ccc(-c2nccs2)cc1)C[C@H](O)[C@H](Cc1ccccc1)NC(=O)[C@@H](NC(=O)OC)C(C)C [Example 18, 1-[4-(Thiazol-2-yl)-phenyl]-4(S)-hydroxy-2-N-(N-methoxycarbonyl-(L)-iso-leucyl)amino-5(S)-N-(N-methoxycarbonyl-(L)-valyl)amino-6-phenyl-2-azahexane] | 25 nM | – |
| COC(=O)N[C@H](C(=O)N[C@@H](Cc1ccccc1)[C@@H](O)CN(Cc1ccc(-c2nnn(C)n2)cc1)NC(=O)[C@@H](NC(=O)OC)C(C)(C)C)C(C)(C)C [Example 27, 1-[4-(2-Methyl-2H-tetrazol-5-yl)-phenyl]-4(S)-hydroxy-5(S)-2,5-bis[N-(N-methoxycarbonyl-(L)-tert-leucyl)amino]-6-phenyl-2-azahexane] | 27 nM | – |
| CC[C@H](C)[C@H](NC(=O)OC)C(=O)NN(Cc1ccc(-c2nnn(C(C)(C)c3ccccc3)n2)cc1)C[C@H](O)[C@H](Cc1ccccc1)NC(=O)[C@@H](NC(=O)OC)C(C)(C)C [Example 28, 1-{4-[2-(1-Methyl-1-phenyl-ethyl)-2H-tetrazol-5-yl]-phenyl}-4(S)-hydroxy-2-N-(N-methoxycarbonyl-(L)-iso-leucyl)amino-5(S)-N-(N-methoxycarbonyl-(L)-tert-leucyl)amino-6-phenyl-2-azahexane] | 83 nM | – |
| CC[C@H](C)[C@H](NC(=O)OC)C(=O)NN(Cc1ccc(-c2ccccn2)cc1)C[C@H](O)[C@H](Cc1ccccc1)NC(=O)[C@@H](NC(=O)OC)C(C)C [Example 51, 1-[4-(Pyridin-2-yl)-phenyl]-4(S)-hydroxy-2-N-(N-methoxy-carbonyl-(L)-iso-leucyl)amino-5(S)-N-(N-methoxycarbonyl-(L)-valyl)amino-6-phenyl-2-azahexane] | – | IC50: 34 nM |
| CCOC(=O)N[C@H](C(=O)N[C@@H](Cc1ccccc1)[C@@H](O)CN(Cc1ccc(-c2ccccn2)cc1)NC(=O)[C@@H](NC(=O)OCC)C(C)C)C(C)C [Example 38, 1-[4-(Pyridin-2-yl)-phenyl]-4(S)-hydroxy-5(S)-2,5-bis[N-(N-ethoxycarbonyl-(L)-valyl)amino]-6-phenyl-2-azahexane] | 85 nM | – |
| 1-[4-(Pyrazin-2-yl)-phenyl]-4(S)-hydroxy-2-[N-(N-methoxycarbonyl-(L)-valyl)amino]-5(S)-[N-(N-methoxycarbonyl-(L)-tert-leucyl)amino]-6-phenyl-2-azahexane [Example 44] | – | IC50 (icosapeptide RRSNQVSQNYPIVQNIQGRR 122 µM, 20 mM MES pH 6.0, one hour at 37°C, read-out: IC50): 29 nM |
| CCOC(=O)N[C@H](C(=O)NN(Cc1ccc(-c2cncs2)cc1)C[C@H](O)[C@H](Cc1ccccc1)NC(=O)[C@@H](NC(=O)OC)C(C)C)C(C)C [Example 8, 1-[4-(Thiazol-5-yl)-phenyl]-4(S)-hydroxy-2-N-(N-ethoxycarbonyl-(L)-valyl)-amino-5(S)-N-(N-methoxycarbonyl-(L)-valyl)amino-6-phenyl-2-azahexane] | 10 nM | – |
| COC(=O)N[C@H](C(=O)N[C@@H](Cc1ccccc1)[C@@H](O)CN(Cc1ccc(-c2nnn(C(C)(C)c3ccccc3)n2)cc1)NC(=O)[C@@H](NC(=O)OC)C(C)(C)C)C(C)(C)C [Example 25, 1-{4-[2-(1-Methyl-1-phenyl-ethyl)-2H-tetrazol-5-yl]-phenyl}-4(S)-hydroxy-5(S)-2,5-bis[N-(N-methoxycarbonyl-(L)-tert-leucyl)amino]-6-phenyl-2-azahexane] | 100 nM | – |
| CCOC(=O)N[C@H](C(=O)NN(Cc1ccc(-c2nccs2)cc1)C[C@H](O)[C@H](Cc1ccccc1)NC(=O)[C@@H](NC(=O)OC)[C@@H](C)CC)C(C)C [Example 22, 1-[4-(Thiazol-2-yl)-phenyl]-4(S)-hydroxy-2-N-(N-ethoxycarbonyl-(L)-valyl)amino-5(S)-N-(N-methoxycarbonyl-(L)-iso-leucyl)amino-6-phenyl-2-azahexane] | 40 nM | – |
| CC[C@H](C)[C@H](NC(=O)OC)C(=O)NN(Cc1ccc(-c2nnn[nH]2)cc1)C[C@H](O)[C@H](Cc1ccccc1)NC(=O)[C@@H](NC(=O)OC)C(C)(C)C [Example 29, 1-[4-(Tetrazol-5-yl)-phenyl]-4(S)-hydroxy-2-N-(N-methoxycarbonyl-(L)-iso-leucyl)amino-5(S)-N-(N-methoxycarbonyl-(L)-tert-leucyl)amino-6-phenyl-2-azahexane] | 14 nM | – |
| COC(=O)N[C@H](C(=O)N[C@@H](Cc1ccccc1)[C@@H](O)CN(Cc1ccc(-c2cncs2)cc1)NC(=O)[C@@H](NC(=O)OC)C(C)(C)C)C(C)(C)C [Example 3, 1-[4-(Thiazol-5-yl)-phenyl]-4(S)-hydroxy-5(S)-2,5-bis[N-(N-methoxycarbonyl-(L)-tert-leucyl)amino]-6-phenyl-2-azahexane] | 41 nM | – |
| CC[C@H](C)[C@H](NC(=O)OC)C(=O)NN(Cc1ccc(-c2nnn(C)n2)cc1)C[C@H](O)[C@H](Cc1ccccc1)NC(=O)[C@@H](NC(=O)OC)C(C)(C)C [Example 30, 1-[4-(2-Methyl-2H-tetrazol-5-yl)-phenyl]-4(S)-hydroxy-2-N-(N-methoxycarbonyl-(L)-iso-leucyl)amino-5(S)-N-(N-methoxycarbonyl-(L)-tert-leucyl)amino-6-phenyl-2-azahexane] | 54 nM | – |
| CCOC(=O)N[C@H](C(=O)NN(Cc1ccc(-c2ccccn2)cc1)C[C@H](O)[C@H](Cc1ccccc1)NC(=O)[C@@H](NC(=O)OC)C(C)C)C(C)C [Example 52, 1-[4-(Pyridin-2-yl)-phenyl]-4(S)-hydroxy-2-N-(N-ethoxy-carbonyl-(L)-valyl)-amino-5(S)-N-(N-methoxycarbonyl-(L)-valyl)amino-6-phenyl-2-azahexane] | 34 nM | – |
